Assay results reported in the OligoGym collection.
HELM strings list units from the 5' end as sugar, base in round brackets, then linkage (d deoxyribose, r ribose, m 2'-O-methyl, p phosphodiester). Strings are as the collection lists them; they lack the last nucleoside at the 3' end of the tested compound. [moe] = 2'-O-(2-methoxyethyl) (MOE); [sp] = phosphorothioate linkage; [m5C] = 5-methylcytosine

These substances were tested against UBE3A-ATS (assay: mouse, dose not given). Details: ASO.

Point of comparison: “RNA1{[moe]([m5C])[sp].[moe](T)p.[moe](G)p.[moe]([m5C])p.[moe](T)p.d([m5C])[sp].d(A)[sp].d(G)[sp].d(T)[sp].d(T)[sp].d(A)[sp].d(G)[sp].d(G)[sp].d(T)[sp].d(T)[sp].[moe](A)p.[moe](G)p.[moe](T)[sp].[moe](G)}$$$$ (last 3' nucleoside missing)”, 3 h FOB score 3.3 score 0-7. Against it:
- RNA1{[moe]([m5C])[sp].[moe](G)p.[moe](T)p.[moe](G)p.d(A)[sp].d(G)[sp].d([m5C])[sp].d(T)[sp].d(A)[sp].d(T)[sp].d([m5C])[sp].d(T)[sp].d(G)[sp].d(T)[sp].[moe](A)p.[moe]([m5C])p.[moe](A)p.[moe](A)[sp].[moe](A)}$$$$ (last 3' nucleoside missing) — higher, 4 score 0-7
- RNA1{[moe]([m5C])[sp].[moe](G)p.[moe](T)p.[moe](T)p.[moe](A)p.d(T)[sp].d(T)[sp].d([m5C])[sp].d(A)[sp].d(G)[sp].d(T)[sp].d([m5C])[sp].d(T)[sp].d([m5C])[sp].d(A)[sp].[moe](G)p.[moe](G)p.[moe](G)[sp].[moe](A)}$$$$ (last 3' nucleoside missing) — higher, 4.5 score 0-7
- RNA1{[moe]([m5C])[sp].[moe](G)p.[moe](T)p.[moe]([m5C])p.[moe](T)p.d(T)[sp].d([m5C])[sp].d([m5C])[sp].d([m5C])[sp].d(G)[sp].d([m5C])[sp].d(A)[sp].d([m5C])[sp].d([m5C])[sp].d(A)[sp].[moe](T)p.[moe](G)p.[moe]([m5C])[sp].[moe](A)}$$$$ (last 3' nucleoside missing) — lower, 2 score 0-7
- RNA1{[moe]([m5C])[sp].[moe](G)p.[moe]([m5C])p.[moe](A)[sp].d(A)[sp].d(T)[sp].d(G)[sp].d(T)[sp].d(A)[sp].d(T)[sp].d([m5C])[sp].d(A)[sp].[moe](G)p.[moe](G)p.[moe]([m5C])p.[moe](A)[sp].[moe](A)}$$$$ (last 3' nucleoside missing) — lower, 1 score 0-7
- RNA1{[moe]([m5C])[sp].[moe](G)p.[moe]([m5C])p.[moe](A)p.[moe](A)[sp].d(T)[sp].d(G)[sp].d(T)[sp].d(A)[sp].d(T)[sp].d([m5C])[sp].d(A)[sp].d(G)[sp].[moe](G)p.[moe]([m5C])p.[moe](A)[sp].[moe](A)}$$$$ (last 3' nucleoside missing) — lower, 2 score 0-7
- RNA1{[moe]([m5C])[sp].[moe](G)p.[moe]([m5C])p.[moe](A)p.[moe](A)p.[moe](T)[sp].d(G)[sp].d(T)[sp].d(A)[sp].d(T)[sp].d([m5C])[sp].d(A)[sp].d(G)[sp].d(G)[sp].[moe]([m5C])p.[moe](A)[sp].[moe](A)}$$$$ (last 3' nucleoside missing) — lower, 3 score 0-7
- RNA1{[moe]([m5C])[sp].[moe](G)p.[moe]([m5C])p.[moe](A)p.[moe](A)p.d(T)[sp].d(G)[sp].d(T)[sp].d(A)[sp].d(T)[sp].d([m5C])[sp].d(A)[sp].d(G)[sp].d(G)[sp].d([m5C])[sp].[moe](A)p.[moe](A)p.[moe]([m5C])[sp].[moe](A)}$$$$ (last 3' nucleoside missing) — higher, 4 score 0-7
- RNA1{[moe]([m5C])[sp].[moe](T)p.[moe](A)p.[moe](A)p.[moe](A)p.d(A)[sp].d(T)[sp].d([m5C])[sp].d([m5C])[sp].d(A)[sp].d(T)[sp].d(T)[sp].d(T)[sp].d(G)[sp].d(T)[sp].[moe]([m5C])p.[moe]([m5C])p.[moe](A)[sp].[moe](G)}$$$$ (last 3' nucleoside missing) — the same, 3.3 score 0-7
- RNA1{[moe]([m5C])[sp].[moe](T)p.[moe](A)p.[moe](A)p.[moe]([m5C])p.d(T)[sp].d(T)[sp].d(T)[sp].d(A)[sp].d(T)[sp].d(A)[sp].d(G)[sp].d(T)[sp].d(G)[sp].d(T)[sp].[moe](G)p.[moe](G)p.[moe](A)[sp].[moe](T)}$$$$ (last 3' nucleoside missing) — higher, 5 score 0-7
- RNA1{[moe]([m5C])[sp].[moe](T)p.[moe](A)p.[moe](G)p.[moe](G)p.d([m5C])[sp].d(A)[sp].d(G)[sp].d([m5C])[sp].d(T)[sp].d([m5C])[sp].d(T)[sp].d(T)[sp].d(T)[sp].d(G)[sp].[moe](T)p.[moe](A)p.[moe](G)[sp].[moe](G)}$$$$ (last 3' nucleoside missing) — lower, 0.3 score 0-7
- RNA1{[moe]([m5C])[sp].[moe](T)p.[moe](A)p.[moe](T)p.[moe]([m5C])p.d(A)[sp].d(A)[sp].d(G)[sp].d(G)[sp].d([m5C])[sp].d(T)[sp].d(G)[sp].d(T)[sp].d(T)[sp].d(A)[sp].[moe](T)p.[moe](T)p.[moe](G)[sp].[moe](G)}$$$$ (last 3' nucleoside missing) — higher, 4 score 0-7
- RNA1{[moe]([m5C])[sp].[moe](T)p.[moe](A)p.[moe](T)p.[moe]([m5C])p.d(T)[sp].d(G)[sp].d(T)[sp].d(A)[sp].d([m5C])[sp].d(A)[sp].d(A)[sp].d(A)[sp].d(A)[sp].d(T)[sp].[moe](G)p.[moe](G)p.[moe](A)[sp].[moe](A)}$$$$ (last 3' nucleoside missing) — lower, 0 score 0-7
- RNA1{[moe]([m5C])[sp].[moe](T)p.[moe](G)p.[moe](A)p.[moe](G)p.d(T)[sp].d([m5C])[sp].d(A)[sp].d(G)[sp].d(T)[sp].d([m5C])[sp].d([m5C])[sp].d(A)[sp].d(A)[sp].d(A)[sp].[moe](T)p.[moe](G)p.[moe](A)[sp].[moe](A)}$$$$ (last 3' nucleoside missing) — lower, 0.5 score 0-7
- RNA1{[moe]([m5C])[sp].[moe](T)p.[moe](G)p.[moe](A)p.[moe](T)p.[moe]([m5C])p.d(A)[sp].d([m5C])[sp].d(A)[sp].d(T)[sp].d(T)[sp].d(A)[sp].d([m5C])[sp].d([m5C])[sp].d([m5C])[sp].d(A)[sp].[moe](T)p.[moe]([m5C])[sp].[moe]([m5C])}$$$$ (last 3' nucleoside missing) — lower, 0 score 0-7
- RNA1{[moe]([m5C])[sp].[moe](T)p.[moe](G)p.[moe](A)p.[moe](T)p.d([m5C])[sp].d(A)[sp].d([m5C])[sp].d(A)[sp].d(T)[sp].d(T)[sp].d(A)[sp].d([m5C])[sp].d([m5C])[sp].d([m5C])[sp].[moe](A)p.[moe](T)p.[moe]([m5C])[sp].[moe]([m5C])}$$$$ (last 3' nucleoside missing) — lower, 1 score 0-7
- RNA1{[moe]([m5C])[sp].[moe](T)p.[moe](G)p.[moe](A)p.d(T)[sp].d([m5C])[sp].d(A)[sp].d([m5C])[sp].d(A)[sp].d(T)[sp].d(T)[sp].d(A)[sp].d([m5C])[sp].d([m5C])[sp].[moe]([m5C])p.[moe](A)p.[moe](T)p.[moe]([m5C])[sp].[moe]([m5C])}$$$$ (last 3' nucleoside missing) — lower, 0 score 0-7
- RNA1{[moe]([m5C])[sp].[moe](T)p.[moe](G)p.[moe](G)p.[moe](T)p.d(A)[sp].d(G)[sp].d(G)[sp].d(A)[sp].d(T)[sp].d([m5C])[sp].d(T)[sp].d(A)[sp].d(T)[sp].d(G)[sp].[moe](G)p.[moe]([m5C])p.[moe](A)[sp].[moe](G)}$$$$ (last 3' nucleoside missing) — lower, 2.3 score 0-7
- RNA1{[moe]([m5C])[sp].[moe](T)p.[moe](G)p.[moe](T)p.[moe](A)p.d(A)[sp].d(G)[sp].d(G)[sp].d(T)[sp].d(G)[sp].d(A)[sp].d(T)[sp].d(A)[sp].d(T)[sp].d([m5C])[sp].[moe](T)p.[moe](A)p.[moe](T)[sp].[moe](A)}$$$$ (last 3' nucleoside missing) — lower, 3 score 0-7
- RNA1{[moe]([m5C])[sp].[moe](T)p.[moe](G)p.[moe](T)p.[moe](A)p.d(A)[sp].d(G)[sp].d(T)[sp].d(A)[sp].d(T)[sp].d(A)[sp].d(G)[sp].d(A)[sp].d(T)[sp].d(G)[sp].[moe]([m5C])p.[moe]([m5C])p.[moe](T)[sp].[moe]([m5C])}$$$$ (last 3' nucleoside missing) — lower, 3.2 score 0-7
- RNA1{[moe]([m5C])[sp].[moe](T)p.[moe](G)p.[moe](T)p.[moe](A)p.d(T)[sp].d(A)[sp].d(G)[sp].d(T)[sp].d(T)[sp].d(T)[sp].d(A)[sp].d([m5C])[sp].d([m5C])[sp].d([m5C])[sp].[moe](A)p.[moe](G)p.[moe](G)[sp].[moe]([m5C])}$$$$ (last 3' nucleoside missing) — lower, 0 score 0-7
- RNA1{[moe]([m5C])[sp].[moe](T)p.[moe](G)p.[moe]([m5C])p.[moe](T)p.[moe](T)p.d([m5C])[sp].d(A)[sp].d([m5C])[sp].d([m5C])[sp].d(A)[sp].d(T)[sp].d(T)[sp].d(T)[sp].d(T)[sp].d(G)[sp].[moe](A)p.[moe]([m5C])[sp].[moe]([m5C])}$$$$ (last 3' nucleoside missing) — lower, 0 score 0-7
- RNA1{[moe]([m5C])[sp].[moe](T)p.[moe](G)p.[moe]([m5C])p.[moe](T)p.[moe]([m5C])p.d(A)[sp].d(G)[sp].d(T)[sp].d(T)[sp].d(A)[sp].d(G)[sp].d(G)[sp].d(T)[sp].d(T)[sp].d(A)[sp].[moe](G)p.[moe](T)[sp].[moe](G)}$$$$ (last 3' nucleoside missing) — lower, 3 score 0-7
- RNA1{[moe]([m5C])[sp].[moe](T)p.[moe](G)p.[moe]([m5C])p.[moe](T)p.d(T)[sp].d(A)[sp].d(T)[sp].d(G)[sp].d(T)[sp].d(A)[sp].d(G)[sp].d([m5C])[sp].d(T)[sp].d([m5C])[sp].[moe](A)p.[moe](G)p.[moe]([m5C])[sp].[moe](T)}$$$$ (last 3' nucleoside missing) — lower, 1 score 0-7
- RNA1{[moe]([m5C])[sp].[moe](T)p.[moe](G)p.[moe]([m5C])p.[moe](T)p.d(T)[sp].d([m5C])[sp].d(A)[sp].d([m5C])[sp].d([m5C])[sp].d(A)[sp].d(T)[sp].d(T)[sp].d(T)[sp].d(T)[sp].[moe](G)p.[moe](A)p.[moe]([m5C])[sp].[moe]([m5C])}$$$$ (last 3' nucleoside missing) — lower, 1.3 score 0-7
- RNA1{[moe]([m5C])[sp].[moe](T)p.[moe](G)p.[moe]([m5C])p.d(T)[sp].d(T)[sp].d([m5C])[sp].d(A)[sp].d([m5C])[sp].d([m5C])[sp].d(A)[sp].d(T)[sp].d(T)[sp].d(T)[sp].[moe](T)p.[moe](G)p.[moe](A)p.[moe]([m5C])[sp].[moe]([m5C])}$$$$ (last 3' nucleoside missing) — lower, 0 score 0-7
